Results from patent US9993529B2, “Stable formulations of a hyaluronan-degrading enzyme” (Halozyme, Inc., priority 2011, dated 2018).
Where two headings read alike, the source gives them in different places. Values belong to the compound of their own block, whether it stands above or below them. Residues, ends and D or L forms follow the SMILES beside them.

Experiments:
[1] = RP-HPLC rHuPH20 oxidation peaks (ox-1, ox-2); type: physicochemical; settings: 0.02% surfactant, 30° C., 72 hours
Source text: The stability of hyaluronan degrading enzymes in a composition, such as in the co-formulations provided herein, also can be assessed using other methods and assays known in the art. […] Percent recovery is the relative percentage of the hyaluronidase in the co-formulation over time and at various storage conditions, as compared to a reference sample. […] An increase in particle size and a decrease in the melting temperature indicates denaturation and subsequent aggregation of the hyaluronidase. […] Other methods known to one of skill in the art that can be used to determine the stability of the hyaluronidase in the co-formulations provided herein, include polyacrylamide gel electrophoresis (PAGE), immunoblotting, nuclear magnetic resonance (NMR) spectroscopy, mass spectrometry, circular dichroism (CD) and dye-based fluorescence assays.
The formulations varied in the surfactant and surfactant concentration and the buffer (either histidine or phosphate).
Methionine oxidation can be prevented by addition of free methionine as a scavenger to react with potential oxidative compounds.

[2] = RP-HPLC insulin apparent solubility / percent recovery (content)
Experimental: Apparent solubility was measured as the percent insulin recovery as compared to the initial formulations/conditions.
Samples were prepared by withdrawing 100 μL from each vial at every time point and centrifuging prior to loading. Samples were stored in an autosampler at 4° C. prior to use, and were considered stable for 3 days after preparation. All samples were tested in duplicate.
For insulin, 20 μL was injected for each HPLC run.
To determine the apparent solubility, the peak area of insulin/insulin analog main peak and desamido peak were integrated and combined together to calculate the percentage relative to the standards. […] The data were processed using Design-Expert® 7.0 (StatEase) and the “historical data” feature. Insulin percent purity was expressed as the percent of main insulin versus all insulin species.

rHuPH20 = target: T1, rHuPH20 (Homo sapiens, UniProt P38567); settings: for Effect on rHuPH20 enzymatic activity: stabilizer screen in rHuPH20/insulin formulation ([…] m-cresol, 0.2% phenol, pH 7.3±0.1), 30° C. about one week, semi-quantitative in comparison with NaCl; for rHuPH20 activity: 48 hours
T1 sequence (P38567 36-482): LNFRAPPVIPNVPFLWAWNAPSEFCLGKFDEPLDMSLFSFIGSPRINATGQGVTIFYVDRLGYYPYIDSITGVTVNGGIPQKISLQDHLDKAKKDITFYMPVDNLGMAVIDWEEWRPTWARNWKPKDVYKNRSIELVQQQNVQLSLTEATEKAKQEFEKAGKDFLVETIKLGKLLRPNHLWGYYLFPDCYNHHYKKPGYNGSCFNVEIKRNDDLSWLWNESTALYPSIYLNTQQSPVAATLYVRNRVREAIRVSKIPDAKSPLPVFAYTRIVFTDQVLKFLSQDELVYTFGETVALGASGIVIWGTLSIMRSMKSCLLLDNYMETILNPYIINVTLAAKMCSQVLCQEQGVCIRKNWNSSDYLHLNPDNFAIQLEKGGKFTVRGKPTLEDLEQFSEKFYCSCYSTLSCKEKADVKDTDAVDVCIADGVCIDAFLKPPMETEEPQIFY
Experimental: The activity of a hyaluronan degrading enzyme can be assessed using methods well known in the art. […] A Hyaluronidase Reference Standard (USP) or National Formulary (NF) Standard Hyaluronidase solution can be used in an assay to ascertain the activity, in units, of any hyaluronidase. In one example, activity is measured using a microturbidity assay. […] The turbidity of the resulting sample is measured at 640 nm after an additional development period.

SEC, % main rHuPH20 peak = type: physicochemical
Experimental: SEC was performed using the following conditions: 1× Phosphate Buffered Saline (PBS), a Toso BioScience G2000 SWXL column, and a flow rate set at 1 mL/min. Data were collected as described above and means were reported and entered into the design table following the sample sequence provided by the DOE software.

[3] = Temperature effect on pH and NaOH titration of lysyl lysine buffer; type: physicochemical; settings: Ex27 rHuPH20/insulin glulisine formulations
[4] = in vivo; cited from earlier work
[5] = 4° C., concentrations of Table 22
[6] = stabilizer screen in rHuPH20/insulin formulation, RP-HPLC on samples stored at 5° C., semi-quantitative in comparison with NaCl
[7] = 35° C., 1 day, concentrations of Table 21

Effect on insulin solubility [2]: No effect
Effect on rHuPH20 enzymatic activity (rHuPH20): No effect
Compound: NC(CO)(CO)CO [Tris (100 mM)]

Effect on rHuPH20 enzymatic activity (rHuPH20): No effect
Compound: OC[C@H]1O[C@H](O[C@H]2O[C@H](CO)[C@@H](O)[C@H](O)[C@H]2O)[C@H](O)[C@@H](O)[C@@H]1O [Trehalose]

Effect on rHuPH20 enzymatic activity (rHuPH20): No effect
Compound: OC[C@H]1O[C@@](CO)(O[C@H]2O[C@H](CO)[C@@H](O)[C@H](O)[C@H]2O)[C@@H](O)[C@@H]1O [Sucrose]

Effect on rHuPH20 enzymatic activity (rHuPH20): No effect
Compound: OC[C@@H](O)[C@@H](O)[C@H](O)[C@H](O)CO [Mannitol]

Effect on insulin solubility [2, 6]: No effect
Effect on rHuPH20 enzymatic activity (rHuPH20): No effect
Compound: CSCC[C@H](N)C(=O)O [methionine]

% of Oxidation Peak 1 of rHuPH20 ([1]; Methionine 0 mM): 4.01%
% of Oxidation Peak 1 of rHuPH20 ([1]; Methionine 2 mM): 3.50%
% of Oxidation Peak 1 of rHuPH20 ([1]; Methionine 10 mM): 3.44%
% of Oxidation Peak 1 of rHuPH20 ([1]; Methionine 50 mM): 3.34%
Compound: Polysorbate 80

Effect on rHuPH20 enzymatic activity (rHuPH20): No effect
Compound: OC[C@@H](O)[C@@H](O)[C@H](O)[C@@H](O)CO [sorbitol]

Effect on insulin solubility [2, 6]: No effect
Effect on rHuPH20 enzymatic activity (rHuPH20): No effect
Compound: C[N+](C)(C)CC(=O)O [Betaine]

Effect on rHuPH20 enzymatic activity (rHuPH20): No effect
Compound: O[C@H]1[C@H](O)[C@@H](O)[C@H](O)[C@@H](O)[C@H]1O [Inositol]

% Main rHuPH20 peak by non-denaturing SEC (SEC, % main rHuPH20 peak; [7]): <LOD
Compound: OCCCCCl [4-Chloro-1-butanol]

Effect on rHuPH20 enzymatic activity (rHuPH20): No effect
Compound: NCC(=O)NCC(=O)O [Gly-Gly] (H-Gly-Gly-OH)

% Main rHuPH20 peak by non-denaturing SEC (SEC, % main rHuPH20 peak; [7]): <LOD
Compound: Benzalkonium Chloride

Effect on insulin solubility [2]: No/slight effect;
Effect on rHuPH20 enzymatic activity (rHuPH20): No effect
Compound: OCC(O)CO [glycerol]

% Main rHuPH20 peak by non-denaturing SEC (SEC, % main rHuPH20 peak; [5]): 100.00%
Compound: N[C@@H](Cc1ccccc1)C(=O)O [L-Phenylalanine]

More lines, now with the values behind:

Compound: Polysorbate 20
% of Oxidation Peak 1 of rHuPH20 ([1]; Methionine 0 mM): 4.01%
% of Oxidation Peak 1 of rHuPH20 ([1]; Methionine 2 mM): 3.43%
% of Oxidation Peak 1 of rHuPH20 ([1]; Methionine 10 mM): 3.37%
% of Oxidation Peak 1 of rHuPH20 ([1]; Methionine 50 mM): 3.38%

Compound: COC(=O)c1ccc(O)cc1 [methylparaben]
% Main rHuPH20 peak by non-denaturing SEC (SEC, % main rHuPH20 peak; [5]): 100.00%
rHuPH20 activity (rHuPH20; 4° C.): 10,380
rHuPH20 activity (rHuPH20; 35° C.): 12,660
Enzymatic Activity of rHuPH20 (rHuPH20; preservative 0.05 %, 1 Month, 25° C., insulin/rHuPH20): 2061 U/mL
Enzymatic Activity of rHuPH20 (rHuPH20; preservative 0.05 %, 1 Week, 35° C.): 1058^2 U/mL
Enzymatic Activity of rHuPH20 (rHuPH20; preservative 0.05 %, 2 Weeks, 35° C.): 1018^2 U/mL
Enzymatic Activity of rHuPH20 (rHuPH20; preservative 0.1 %, 1 Month, 25° C.): 1919 U/mL
Enzymatic Activity of rHuPH20 (rHuPH20; preservative 0.1 %, 1 Week, 35° C.): 2085 U/mL
Enzymatic Activity of rHuPH20 (rHuPH20; preservative 0.1 %, 2 Weeks, 35° C.): 1968 U/mL
Enzymatic Activity of rHuPH20 (rHuPH20; preservative 0.2 %, 1 Month, 25° C.): 2196 U/mL
Enzymatic Activity of rHuPH20 (rHuPH20; preservative 0.2 %, 1 Week, 35° C.): 1927 U/mL
Enzymatic Activity of rHuPH20 (rHuPH20; preservative 0.2 %, 2 Weeks, 35° C.): 1590 U/mL
Enzymatic Activity of rHuPH20 (rHuPH20; preservative 0.3 %, 1 Month, 25° C.): 2049 U/mL
Enzymatic Activity of rHuPH20 (rHuPH20; preservative 0.3 %, 2 Weeks, 35° C.): 447 U/mL

Compound: Cl.Cl.NCCCCC(N)C(=O)NC(CCCCN)C(=O)O (stereo not drawn) [Lys-Lys, H-Lys-Lys-OH HCl]
temperature effect (dpH/dT) [3]: −0.033 U/° C.
Effect on insulin solubility [2, 6]: Reduced solubility
Effect on insulin solubility ([2]; stabilizer screen, 5° C.): caused severe precipitation of insulin
Lys-Lys concentration sufficient to improve rHuPH20 stability (rHuPH20; Ex24, 40° C.): 10 mM
Effect on rHuPH20 enzymatic activity (rHuPH20): Strong stabilizer
stabilization of rHuPH20 compared with NaCl (rHuPH20; stabilizer screen, […] m-cresol, 0.2% phenol, 30° C., about one week): stabilized rHuPH20 more than NaCl

Compound: Cc1cccc(O)c1 [m-cresol]
% Main rHuPH20 peak by non-denaturing SEC (SEC, % main rHuPH20 peak; [5]): 100.00%
rHuPH20 activity (rHuPH20; 35° C.): <LOQ

Compound: C[N+](C)(C)[O-] [Trimethylamine oxide (TMAO)]
Effect on insulin solubility [2, 6]: No effect
Effect on rHuPH20 enzymatic activity (rHuPH20): No effect

Compound: glargine: long-lasting insulin analog
Duration [4]: 28 h

Compound: O=C(O)CCCc1ccccc1 [Phenyl butyric acid]
Effect on rHuPH20 enzymatic activity (rHuPH20): No effect

Compound: NC(=O)CC[C@H](N)C(=O)O [Glutamine]
Effect on insulin solubility [2, 6]: No effect
Effect on rHuPH20 enzymatic activity (rHuPH20): No effect

Compound: detemir: long-lasting insulin analog
Duration [4]: 28 h

Compound: NCCCC[C@H](N)C(=O)O [Lysine]
Effect on insulin solubility [2, 6]: No effect
Effect on rHuPH20 enzymatic activity (rHuPH20): No effect

Compound: O=C([O-])c1ccccc1.[Na+] [Sodium Benzoate]
Effect on rHuPH20 enzymatic activity (rHuPH20): No effect
